In one assay the target is T1, human PI3Kα protein (Homo sapiens, UniProt P42336).
T1 construct: purchased Carna Biosciences, Inc; host or cells: baculovirus expression system
Briefly: PI3Kα enzyme assay (ADP-Glo). Format: biochemical. To be noted: read-out: PI3Kα enzyme inhibitory activity. Summed up:
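Biotinylated human PI3Kα (baculovirus-expressed, 4.5 nmol/L) pre-incubated 15 min with compound in Tris-HCl pH 7.5, MgCl2, BSA; reaction 60 min at 25° C with 50 μmol/L PIP2 and 100 μmol/L ATP final. ADP quantified by ADP-Glo luminescence; IC50 calculated.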

In assay [1] the target is T2, GST fusion human ERK2 protein (Homo sapiens, UniProt P28482).
T2 construct: purchased Carna Biosciences, Inc; host or cells: E. coli expression system
Briefly: ERK2 enzyme assay (2). The assay is classed as biochemical. To be noted: ERK2 enzyme assay (2); read-out: ERK2 enzyme inhibitory activity (2). In outline:
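IC50 values come from mobility-shift measurement of phosphorylated versus unphosphorylated 5-FAM peptide substrate after EDTA quench. Beforehand, compound and 1.25 nmol/L E. coli-expressed GST–human ERK2 stood 15 min at room temperature (pH 7.5), then 1 mmol/L ATP and 4.25 μmol/L substrate (final) were added for 120 min at 25 °C.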

Where a name gives a salt, the structure may show the parent alone.

T2 sequence (P28482 whole entry, the tested form may be a part): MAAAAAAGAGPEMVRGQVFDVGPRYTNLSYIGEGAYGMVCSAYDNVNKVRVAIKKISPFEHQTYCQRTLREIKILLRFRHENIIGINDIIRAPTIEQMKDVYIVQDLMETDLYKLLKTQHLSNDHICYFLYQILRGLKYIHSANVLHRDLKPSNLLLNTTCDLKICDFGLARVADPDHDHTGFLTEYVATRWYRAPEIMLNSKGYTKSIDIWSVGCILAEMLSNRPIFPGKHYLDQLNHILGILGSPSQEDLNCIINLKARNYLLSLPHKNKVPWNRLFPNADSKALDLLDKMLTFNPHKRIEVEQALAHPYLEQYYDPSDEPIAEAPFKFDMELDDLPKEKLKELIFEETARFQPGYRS
T1 sequence (P42336 whole entry): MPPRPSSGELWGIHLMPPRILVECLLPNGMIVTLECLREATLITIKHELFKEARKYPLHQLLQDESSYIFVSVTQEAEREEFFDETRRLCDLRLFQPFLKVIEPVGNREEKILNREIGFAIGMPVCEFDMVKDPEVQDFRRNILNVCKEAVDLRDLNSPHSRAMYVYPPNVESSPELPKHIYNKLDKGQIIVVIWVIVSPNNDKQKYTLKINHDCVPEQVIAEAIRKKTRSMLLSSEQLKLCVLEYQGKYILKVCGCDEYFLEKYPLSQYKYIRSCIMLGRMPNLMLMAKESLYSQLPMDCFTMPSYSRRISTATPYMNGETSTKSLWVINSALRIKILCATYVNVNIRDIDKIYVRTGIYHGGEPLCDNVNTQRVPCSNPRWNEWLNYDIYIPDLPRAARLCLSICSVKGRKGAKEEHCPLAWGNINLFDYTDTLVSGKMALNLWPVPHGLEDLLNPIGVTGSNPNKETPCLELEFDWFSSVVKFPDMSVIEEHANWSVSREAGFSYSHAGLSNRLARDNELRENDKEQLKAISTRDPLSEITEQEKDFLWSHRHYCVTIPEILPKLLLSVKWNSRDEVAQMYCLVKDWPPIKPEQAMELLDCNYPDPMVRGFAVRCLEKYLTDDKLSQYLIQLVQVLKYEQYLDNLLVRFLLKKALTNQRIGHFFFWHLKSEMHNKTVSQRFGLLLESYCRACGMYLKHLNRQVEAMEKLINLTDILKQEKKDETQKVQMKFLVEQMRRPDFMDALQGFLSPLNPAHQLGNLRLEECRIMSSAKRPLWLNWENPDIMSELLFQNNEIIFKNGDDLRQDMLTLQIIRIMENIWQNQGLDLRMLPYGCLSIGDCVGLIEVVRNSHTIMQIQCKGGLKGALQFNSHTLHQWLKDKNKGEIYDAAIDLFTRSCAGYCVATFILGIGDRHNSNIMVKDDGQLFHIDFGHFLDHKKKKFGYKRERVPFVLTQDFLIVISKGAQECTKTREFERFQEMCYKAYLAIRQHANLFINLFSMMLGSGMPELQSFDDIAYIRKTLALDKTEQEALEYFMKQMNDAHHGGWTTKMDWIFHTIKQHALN
T1 sequence (P27986 whole entry partner): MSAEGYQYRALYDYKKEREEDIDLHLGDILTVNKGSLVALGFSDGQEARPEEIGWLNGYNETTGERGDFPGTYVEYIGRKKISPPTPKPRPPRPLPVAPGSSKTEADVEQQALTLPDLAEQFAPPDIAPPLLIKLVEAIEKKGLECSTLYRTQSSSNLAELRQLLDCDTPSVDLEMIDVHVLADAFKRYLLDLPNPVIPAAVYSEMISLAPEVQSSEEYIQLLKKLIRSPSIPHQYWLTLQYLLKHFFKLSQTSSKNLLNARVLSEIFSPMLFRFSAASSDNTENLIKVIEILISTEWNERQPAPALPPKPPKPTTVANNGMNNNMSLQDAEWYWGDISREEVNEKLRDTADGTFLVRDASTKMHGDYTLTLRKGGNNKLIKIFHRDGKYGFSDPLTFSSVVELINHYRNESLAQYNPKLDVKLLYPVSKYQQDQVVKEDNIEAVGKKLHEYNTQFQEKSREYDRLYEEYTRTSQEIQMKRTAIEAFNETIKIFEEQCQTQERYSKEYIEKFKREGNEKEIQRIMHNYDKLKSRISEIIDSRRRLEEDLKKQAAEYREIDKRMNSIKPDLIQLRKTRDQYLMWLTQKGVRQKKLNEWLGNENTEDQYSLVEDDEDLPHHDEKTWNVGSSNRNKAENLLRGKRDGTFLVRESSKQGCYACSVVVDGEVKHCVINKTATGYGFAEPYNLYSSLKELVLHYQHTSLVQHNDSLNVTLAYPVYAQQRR

With `CC(=O)Nc1cnc2ccc(Nc3cc(C(C)C)cnn3)nc2c1` [Example 0625, N-(6-((5-isopropylpyridazin-3-yl)amino)-1,5-naphthyridin-3-yl)acetamide], the IC50 on human PI3Kα protein was under 1000 nM; in assay [1], 1000 to 10000 nM.
The like results for `CC(C)c1cnnc(Nc2ccc3ncc(N(C)C)cc3n2)c1` [Example 0627, N^2-(5-isopropylpyridazin-3-yl)-N^7,N^7-dimethyl-1,5-naphthyridine-2,7-diamine] were, in that order, 1000 to 10000 nM and under 1000 nM.
The corresponding values for `CC(=O)N(C)c1cnc2ccc(Nc3cc(C(C)C)cnn3)nc2c1` [Example 0628, N-(6-((5-isopropylpyridazin-3-yl)amino)-1,5-naphthyridin-3-yl)-N-methylacetamide] are 10000 to 50000 nM and under 1000 nM.
On to `COCCC(=O)Nc1cnc2ccc(Nc3cc(C(C)C)cnn3)nc2c1` [Example 0632, N-(6-((5-isopropylpyridazin-3-yl)amino)-1,5-naphthyridin-3-yl)-3-methoxypropanamide], for which the IC50 on human PI3Kα protein is under 1000 nM; in assay [1] it was 1000 to 10000 nM.
The like results for `Cn1cc(-c2cnc3ccc(Nc4cc(C5(C)CC5)cnn4)nc3c2)cn1` [Example 0633] were, in that order, under 1000 nM and under 1000 nM.
The like results for `CC(C)c1cnnc(Nc2ccc3ncc(-c4cn(C)nc4C(F)(F)F)cc3n2)c1` [Example 0634] were, in that order, under 1000 nM and under 1000 nM.
The corresponding values for `CC(C)c1cnnc(Nc2ccc3ncc(-c4cn(C)nc4N)cc3n2)c1` [Example 0636, 7-(3-amino-1-methyl-1H-pyrazol-4-yl)-N-(5-isopropylpyridazin-3-yl)-1,5-naphthyridine-2-amine] are under 1000 nM and under 1000 nM.
For the molecule `C=Cc1cnc2ccc(Nc3cc(C(C)C)cnn3)nc2c1` [Example 0638, N-(5-isopropylpyridazin-3-yl)-7-vinyl-1,5-naphthyridine-2-amine], the IC50 at human PI3Kα protein is 1000 to 10000 nM; in assay [1] it was under 1000 nM.
Regarding `CC(C)c1cnnc(Nc2ccc3ncc(C(=O)O)cc3n2)c1` [Example 0639, 6-((5-isopropylpyridazin-3-yl)amino)-1,5-naphthyridine-3-carboxylic acid], the IC50 at human PI3Kα protein was 1000 to 10000 nM; in assay [1] it was 10000 to 50000 nM.
For the molecule `CC(C)c1cnnc(Nc2ccc3ncc(C(N)=O)cc3n2)c1` [Example 0640, 6-((5-isopropylpyridazin-3-yl)amino)-1,5-naphthyridine-3-carboxamide], the IC50 was 1000 to 10000 nM at human PI3Kα protein and under 1000 nM in assay [1].
The like results for `CC(C)c1cnnc(Nc2ccc3ncc(-c4cnn(CCC5OCCCO5)c4)cc3n2)c1` [Example 0641, 7-(1-(2-(1,3-Dioxan-2-yl)ethyl)-1H-pyrazol-4-yl)-N-(5-isopropylpyridazin-3-yl)-1,5-naphthyridine-2-amine] were, in that order, under 1000 nM and under 1000 nM.
The corresponding values for `CNC(=O)c1cnc2ccc(Nc3cc(C(C)C)cnn3)nc2c1` [Example 0642] are 1000 to 10000 nM and under 1000 nM.
The like results for `COC(CCn1cc(-c2cnc3ccc(Nc4cc(C(C)C)cnn4)nc3c2)cn1)OC` [Example 0646, 7-(1-(3,3-dimethoxypropyl)-1H-pyrazol-4-yl)-N-(5-isopropylpyridazin-3-yl)-1,5-naphthyridine-2-amine] were, in that order, under 1000 nM and under 1000 nM.
As for `CC(C)c1cnnc(Nc2ccc3ncc(/C=C/c4cccnc4)cc3n2)c1` [Example 0648, (E)-N-(5-isopropylpyridazin-3-yl)-7-(2-(pyridin-3-yl)vinyl)-1,5-naphthyridine-2-amine], the IC50 (on human PI3Kα protein; in assay [1]) was under 1000 nM in each case.
With `CC(C)c1cnnc(Nc2ccc3ncc(/C=C/c4ccncc4)cc3n2)c1` [Example 0652, (E)-N-(5-isopropylpyridazin-3-yl)-7-(2-(pyridin-4-yl)vinyl)-1,5-naphthyridine-2-amine], the IC50 (on human PI3Kα protein; in assay [1]) was under 1000 nM each time.
Regarding `CC(C)c1cnnc(Nc2ccc3ncc(NC(=O)COCc4ccccc4)cc3n2)c1` [Example 0654, 2-(benzyloxy)-N-(6-((5-isopropylpyridazin-3-yl)amino)-1,5-naphthyridin-3-yl)acetamide], the IC50 was under 1000 nM on human PI3Kα protein and 1000 to 10000 nM in assay [1].
The like results for `CC(C)c1cnnc(Nc2ccc3ncc(C(=O)NCCO)cc3n2)c1` [Example 0655, N-(2-hydroxyethyl)-6-((5-isopropylpyridazin-3-yl)amino)-1,5-naphthyridine-3-carboxamide] were, in that order, 1000 to 10000 nM and 1000 to 10000 nM.
The like results for `CC(C)c1cnnc(Nc2ccc3ncc(/C=C/c4ccccn4)cc3n2)c1` [Example 0656, (E)-N-(5-isopropylpyridazin-3-yl)-7-(2-(pyridin-2-yl)vinyl)-1,5-naphthyridine-2-amine] were, in that order, under 1000 nM and 1000 to 10000 nM.
As to `CC(C)c1cnnc(Nc2ccc3ncc(-c4cnn(CCCN5CCOC(C)(C)C5)c4)cc3n2)c1` [Example 0658], the IC50 (on human PI3Kα protein; in assay [1]) was under 1000 nM in each case.
On to `COCCN(CCCn1cc(-c2cnc3ccc(Nc4cc(C(C)C)cnn4)nc3c2)cn1)CCOC` [Example 0660], for which the IC50 (on human PI3Kα protein; in assay [1]) was under 1000 nM each time.
As for `CC(C)c1cnnc(Nc2ccc3ncc(-c4cnn(CCCN(C)CC(=O)OC(C)(C)C)c4)cc3n2)c1` [Example 0661], the IC50 (at human PI3Kα protein; in assay [1]) was under 1000 nM in each case.
As to `CC(C)c1cnnc(Nc2ccc3ncc(NC(=O)CO)cc3n2)c1` [Example 0662, 2-hydroxy-N-(6-((5-isopropylpyridazin-3-yl)amino)-1,5-naphthyridin-3-yl)acetamide], the results for the IC50 (on human PI3Kα protein; in assay [1]) were under 1000 nM and 1000 to 10000 nM, respectively.
The like results for `CC(C)c1cnnc(Nc2ccc3ncc(C(=O)NCCCO)cc3n2)c1` [Example 0663] were, in that order, 1000 to 10000 nM and 1000 to 10000 nM.
The corresponding values for `CC(C)c1cnnc(Nc2ccc3ncc(C(=O)NCCCCO)cc3n2)c1` [Example 0664] are 1000 to 10000 nM and 1000 to 10000 nM.
For the molecule `CC(C)c1cnnc(Nc2ccc3ncc(-c4cnn(CCCN5CC(C(=O)O)C5)c4)cc3n2)c1` [Example 0666], the IC50 (on human PI3Kα protein; in assay [1]) was under 1000 nM in each case.
As to `CC(C)c1cnnc(Nc2ccc3ncc(-c4cnn(CCCN(C)CC(=O)O)c4)cc3n2)c1` [Example 0667, 2-((3-(4-(6-((5-isopropylpyridazin-3-yl)amino)-1,5-naphthyridin-3-yl)-1H-pyrazol-1-yl)propyl) (methyl)amino)acetic acid], the IC50 (on human PI3Kα protein; in assay [1]) was under 1000 nM throughout.
As for `CC(C)c1cnnc(Nc2ccc3ncc(C(=O)Nc4ccncc4)cc3n2)c1` [Example 0669], the IC50 (at human PI3Kα protein; in assay [1]) was 1000 to 10000 nM throughout.
Consider `CC(C)c1cnnc(Nc2ccc3ncc(-c4cnn(CCCN5CC(C(N)=O)C5)c4)cc3n2)c1` [Example 0670], for which the IC50 (at human PI3Kα protein; in assay [1]) was under 1000 nM throughout.
Turning to `CC(C)c1cnnc(Nc2ccc3ncc(-c4cnn(CCCN(C)CC(N)=O)c4)cc3n2)c1` [Example 0671], the IC50 (on human PI3Kα protein; in assay [1]) was under 1000 nM each time.
In the case of `CC(C)c1cnnc(Nc2ccc3ncc(-c4cnn(CCCN5CCCCC5C(F)(F)F)c4)cc3n2)c1` (stereo not drawn) [Example 0672], the IC50 (at human PI3Kα protein; in assay [1]) was under 1000 nM each time.
On to `CC(C)c1cnnc(Nc2ccc3ncc(-c4cnn(CCCN5CCC(C(F)(F)F)CC5)c4)cc3n2)c1` [Example 0673], for which the IC50 (on human PI3Kα protein; in assay [1]) was under 1000 nM in each case.
For `CC1CN(CCCn2cc(-c3cnc4ccc(Nc5cc(C(C)C)cnn5)nc4c3)cn2)C(C)CO1` (stereo not drawn) [Example 0674], the IC50 (at human PI3Kα protein; in assay [1]) was under 1000 nM throughout.
In the case of `CCOC1CN(CCCn2cc(-c3cnc4ccc(Nc5cc(C(C)C)cnn5)nc4c3)cn2)C1` [Example 0676, N-(5-isopropylpyridazin-3-yl)-7-(1-(3-(3-ethoxyazetidin-1-yl)propyl)-1H-pyrazol-4-yl)-1,5-naphthyridine-2-amine], the IC50 (on human PI3Kα protein; in assay [1]) was under 1000 nM each time.
As for `CC(C)c1cnnc(Nc2ccc3ncc(-c4cnn(CCCN5CC(OCc6ccccc6)C5)c4)cc3n2)c1` [Example 0680], the IC50 (on human PI3Kα protein; in assay [1]) was under 1000 nM each time.
For the molecule `CC(C)c1cnnc(Nc2ccc3ncc(-c4cnn(CCCN5CC(OC(F)F)C5)c4)cc3n2)c1` [Example 0681], the IC50 (at human PI3Kα protein; in assay [1]) was under 1000 nM in each case.
For `CNc1nn(C)cc1-c1cnc2ccc(Nc3cc(C(C)C)cnn3)nc2c1` [Example 0683, N-(5-isopropylpyridazin-3-yl)-7-(1-methyl-3-(methylamino)-1H-pyrazol-4-yl)-1,5-naphthyridine-2-amine hydrochloride], the IC50 (at human PI3Kα protein; in assay [1]) was under 1000 nM in each case.
Turning to `CCC1CN(CCCn2cc(-c3cnc4ccc(Nc5cc(C(C)C)cnn5)nc4c3)cn2)CCO1` (stereo not drawn) [Example 0684], the IC50 (on human PI3Kα protein; in assay [1]) was under 1000 nM throughout.
With `CC(C)c1cnnc(Nc2ccc3ncc(-c4cnn(CCCN5CC(C(=O)N6CCOCC6)C5)c4)cc3n2)c1` [Example 0689], the IC50 (on human PI3Kα protein; in assay [1]) was under 1000 nM in each case.
As to `CC(=O)Nc1nn(C)cc1-c1cnc2ccc(Nc3cc(C(C)C)cnn3)nc2c1` [Example 0690, N-(4-(6-((5-isopropylpyridazin-3-yl)amino)-1,5-naphthyridin-3-yl)-1-methyl-1H-pyrazol-3-yl)acetamide], the IC50 (on human PI3Kα protein; in assay [1]) was under 1000 nM in each case.

The record behind these values is US9783536B2, “Nitrogen-containing heterocyclic compound or salt thereof” (FUJIFILM Corporation, priority 2013, dated 2017).
